{
  "source": "patent US20220184052A1",
  "about": "“COMPOSITION COMPRISING FEXOFENADINE” (Cellix Bio Private Limited, priority 2020, published 2022)",
  "assay": "Drug-excipient compatibility study, 40° C./75% RH-4 W (% degradants)",
  "type": "physicochemical",
  "note": "Where a name gives a salt, the structure may show the parent alone.",
  "data": [
    {"compound": "CC(C)(C(=O)O)c1ccc(C(O)CCCN2CCC(C(O)(c3ccccc3)c3ccccc3)CC2)cc1", "note": "(stereo not shown) [API, Fexofenadine HCl]", "values": [
      {"measurement": "% Total", "setting": "40° C./75% RH-4 W", "result": 0.11, "unit": "%"},
      {"measurement": "Description", "setting": "40° C./75% RH-4 W", "result": "Clear"},
      {"measurement": "% Total", "setting": "Initial", "result": 0.09, "unit": "%"},
      {"measurement": "Description", "setting": "Initial", "result": "Clear"}
    ]}
  ]
}
